# Data as given in the supplement of paper PMC10307832.
# Key:
# Assay in all cases: relative viability (nuclei count vs DMSO), 5 days (fraction); higher = more cells survive
# [1] = test system: A-427
# How it was run: (§1)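 Medians of duplicate plates are given as relative viability. That measure is the nuclei count in treated wells divided by the count in vehicle wells. Counts were taken on 4× images of lung cancer cell lines in 1536-well plates, 5 days after pin-tool dosing the day after seeding with one drug alone or a fixed anchor-drug dose plus five library-drug doses (not always all listed) in √10 steps.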
# [2] = test system: COR-L 105
# How it was run: as §1
# [3] = test system: ChaGo-K-1
# How it was run: as §1
# [4] = test system: EKVX
# How it was run: as §1
# [5] = test system: EMC-BAC-2
# How it was run: as §1
# [6] = test system: EPLC-272H
# How it was run: as §1
# [7] = test system: HARA
# How it was run: as §1
# [8] = test system: HCC-44
# How it was run: as §1
# [9] = test system: LK-2
# How it was run: as §1
# [10] = test system: LU99A
# How it was run: as §1
# [11] = test system: NCI-H1650
# How it was run: as §1
# [12] = test system: NCI-H1734
# How it was run: as §1
# [13] = test system: NCI-H1755
# How it was run: as §1
# [14] = test system: NCI-H1792
# How it was run: as §1
# [15] = test system: NCI-H1993
# How it was run: as §1
# [16] = test system: NCI-H2405
# How it was run: as §1
# [17] = test system: NCI-H358
# How it was run: as §1
# [18] = test system: NCI-H460
# How it was run: as §1
# [19] = test system: NCI-H596
# How it was run: as §1
# [20] = test system: NCI-H647
# How it was run: as §1
# [21] = test system: RERF-LC-KJ
# How it was run: as §1
smiles,measurement,setting,value
Cc1csc(=NC2CCCCC2)n1/N=C/c1ccc(O)c(O)c1O [MIM1] + CS(=O)(=O)N1CCN(Cc2cc3nc(-c4cccc5[nH]ncc45)nc(N4CCOCC4)c3s2)CC1 [Pictilisib] (partner 1 µM),relative viability,[1]; first compound 0.2 µM,0.659
same,relative viability,[1]; first compound 0.6325 µM,0.469
same,relative viability,[1]; first compound 2 µM,0.671
same,relative viability,[1]; first compound 6.325 µM,0.743
same,relative viability,[1]; first compound 20 µM,0.214
same,relative viability,[2]; first compound 0.2 µM,0.424
same,relative viability,[2]; first compound 0.6325 µM,0.366
same,relative viability,[2]; first compound 2 µM,0.344
same,relative viability,[2]; first compound 6.325 µM,0.384
same,relative viability,[2]; first compound 20 µM,0.291
same,relative viability,[3]; first compound 0.2 µM,0.876
same,relative viability,[3]; first compound 0.6325 µM,0.629
same,relative viability,[3]; first compound 2 µM,0.863
same,relative viability,[3]; first compound 6.325 µM,0.644
same,relative viability,[3]; first compound 20 µM,0.265
same,relative viability,[4]; first compound 0.2 µM,0.477
same,relative viability,[4]; first compound 0.6325 µM,0.365
same,relative viability,[4]; first compound 2 µM,0.463
same,relative viability,[4]; first compound 6.325 µM,0.322
same,relative viability,[4]; first compound 20 µM,0.351
same,relative viability,[5]; first compound 0.2 µM,0.538
same,relative viability,[5]; first compound 0.6325 µM,0.479
same,relative viability,[5]; first compound 2 µM,0.542
same,relative viability,[5]; first compound 6.325 µM,0.562
same,relative viability,[5]; first compound 20 µM,0.238
same,relative viability,[6]; first compound 0.2 µM,0.355
same,relative viability,[6]; first compound 0.6325 µM,0.339
same,relative viability,[6]; first compound 2 µM,0.334
same,relative viability,[6]; first compound 6.325 µM,0.3
same,relative viability,[6]; first compound 20 µM,0.235
same,relative viability,[7]; first compound 0.2 µM,0.333
same,relative viability,[7]; first compound 0.6325 µM,0.328
same,relative viability,[7]; first compound 2 µM,0.476
same,relative viability,[7]; first compound 6.325 µM,0.307
same,relative viability,[7]; first compound 20 µM,0.124
same,relative viability,[8]; first compound 0.2 µM,0.811
same,relative viability,[8]; first compound 0.6325 µM,0.589
same,relative viability,[8]; first compound 2 µM,0.61
same,relative viability,[8]; first compound 6.325 µM,0.356
same,relative viability,[8]; first compound 20 µM,0.198
same,relative viability,[9]; first compound 0.2 µM,0.581
same,relative viability,[9]; first compound 0.6325 µM,0.534
same,relative viability,[9]; first compound 6.325 µM,0.561
same,relative viability,[9]; first compound 20 µM,0.269
same,relative viability,[10]; first compound 0.2 µM,0.394
same,relative viability,[10]; first compound 0.6325 µM,0.344
same,relative viability,[10]; first compound 2 µM,0.303
same,relative viability,[10]; first compound 6.325 µM,0.306
same,relative viability,[10]; first compound 20 µM,0.233
same,relative viability,[11]; first compound 0.2 µM,0.595
same,relative viability,[11]; first compound 0.6325 µM,0.545
same,relative viability,[11]; first compound 2 µM,0.434
same,relative viability,[11]; first compound 6.325 µM,0.176
same,relative viability,[11]; first compound 20 µM,0.167
same,relative viability,[12]; first compound 0.2 µM,0.501
same,relative viability,[12]; first compound 0.6325 µM,0.408
same,relative viability,[12]; first compound 2 µM,0.442
same,relative viability,[12]; first compound 6.325 µM,0.351
same,relative viability,[12]; first compound 20 µM,0.266
same,relative viability,[13]; first compound 0.2 µM,0.465
same,relative viability,[13]; first compound 0.6325 µM,0.372
same,relative viability,[13]; first compound 2 µM,0.42
same,relative viability,[13]; first compound 6.325 µM,0.37
same,relative viability,[13]; first compound 20 µM,0.179
same,relative viability,[14]; first compound 0.2 µM,0.296
same,relative viability,[14]; first compound 0.6325 µM,0.293
same,relative viability,[14]; first compound 2 µM,0.26
same,relative viability,[14]; first compound 6.325 µM,0.252
same,relative viability,[14]; first compound 20 µM,0.221
same,relative viability,[15]; first compound 0.2 µM,0.829
same,relative viability,[15]; first compound 0.6325 µM,0.92
same,relative viability,[15]; first compound 2 µM,0.827
same,relative viability,[15]; first compound 6.325 µM,0.776
same,relative viability,[15]; first compound 20 µM,0.764
same,relative viability,[16]; first compound 0.2 µM,0.431
same,relative viability,[16]; first compound 0.6325 µM,0.52
same,relative viability,[16]; first compound 2 µM,0.506
same,relative viability,[16]; first compound 6.325 µM,0.418
same,relative viability,[16]; first compound 20 µM,0.546
same,relative viability,[17]; first compound 0.2 µM,0.309
same,relative viability,[17]; first compound 0.6325 µM,0.271
same,relative viability,[17]; first compound 2 µM,0.254
same,relative viability,[17]; first compound 6.325 µM,0.247
same,relative viability,[17]; first compound 20 µM,0.262
same,relative viability,[18]; first compound 0.2 µM,0.315
same,relative viability,[18]; first compound 0.6325 µM,0.348
same,relative viability,[18]; first compound 2 µM,0.249
same,relative viability,[18]; first compound 6.325 µM,0.329
same,relative viability,[18]; first compound 20 µM,0.274
same,relative viability,[19]; first compound 0.2 µM,0.419
same,relative viability,[19]; first compound 0.6325 µM,0.457
same,relative viability,[19]; first compound 2 µM,0.406
same,relative viability,[19]; first compound 6.325 µM,0.352
same,relative viability,[19]; first compound 20 µM,0.402
same,relative viability,[20]; first compound 0.2 µM,0.379
same,relative viability,[20]; first compound 0.6325 µM,0.578
same,relative viability,[20]; first compound 6.325 µM,0.42
same,relative viability,[20]; first compound 20 µM,0.191
same,relative viability,[21]; first compound 0.2 µM,0.504
same,relative viability,[21]; first compound 0.6325 µM,0.488
same,relative viability,[21]; first compound 2 µM,0.484
same,relative viability,[21]; first compound 6.325 µM,0.415
same,relative viability,[21]; first compound 20 µM,0.225
